Reference: patent publication US6355799B1, “Substituted benzene compounds, process for their preparation, and herbicidal and defoliant compositions containing them” (ISK Americas Incorporated, priority 1997, dated 2002)

How the values were obtained:
Format in all cases: in vivo
[1] = test system: upland rice (Oryza sp., var. Tebonnet, RICE); test: Post-emerge test, crop safety; conditions: rating scale 0-100 (0 no damage, 100 complete death), 14 days after application
Outline: (§1)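 Applied at 15–1000 g ai/ha from acetone in 187 l/ha spray volume. Post-emergence applications included 0.25% v/v non-ionic surfactant and reached plants sown 8–21 days before. Pre-emergence applications were incorporated by surface watering. Efficacy or crop damage was rated on a 0–100 scale after 14 days.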

[2] = test system: field corn (Zea mays L., var. Dekalb 535, CORN); test: Post-emerge test, crop safety; conditions: rating scale 0-100 (0 no damage, 100 complete death), 14 days after application
Outline: as §1

[3] = test system: green foxtail (Setaria viridis, SETVI); test: Pre-emerge test, greenhouse herbicide activity screening; conditions: rating scale 0-100, 14 days after application
Outline: as §1

[4] = test system: sicklepod (Cassia obtusifolia, CASOB); test: as above; conditions: rating scale 0-100, 14 days after application
Outline: as §1

[5] = test system: velvetleaf (Abutilon theophrasti, ABUTH); test: as above; conditions: rating scale 0-100, 14 days after application
Outline: as §1

[6] = test system: lambsquarters (Chenopodium album, CHEAL); test: as above; conditions: rating scale 0-100, 14 days after application
Outline: as §1

[7] = test system: johnsongrass (Sorghum halepense, SORHA); test: as above; conditions: rating scale 0-100, 14 days after application
Outline: as §1

[8] = test system: ivyleaf morningglory (Ipomoea hederacea, IPOHE); test: as above; conditions: rating scale 0-100, 14 days after application
Outline: as §1

[9] = test system: common ragweed (Ambrosia artemisizfolia L., AMBEL); test: as above; conditions: rating scale 0-100, 14 days after application
Outline: as §1

[10] = test system: large crabgrass (Digitaria sanguinalis, DIGSA); test: as above; conditions: rating scale 0-100, 14 days after application
Outline: as §1

[11] = test system: barnyardgrass (Echinochloa crus-galli, ECHCG); test: as above; conditions: rating scale 0-100, 14 days after application
Outline: as §1

[12] = test system: upland rice (Oryza sp., var. Tebonnet, RICE); test: Pre-emerge test, crop safety; conditions: rating scale 0-100, 14 days after application
Outline: (§2)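 Herbicidal damage is scored 0 (none) to 100 (complete plant death) two weeks after a simulated field spray. Rates span 15–1000 g ai/ha, delivered in acetone at 187 l/ha. For post-emergence treatments, plants have 2–3 leaves and the spray carries 0.25% v/v non-ionic surfactant.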

[13] = test system: field corn (Zea mays L., var. Dekalb 535, CORN); test: Pre-emerge test, crop safety; conditions: rating scale 0-100, 14 days after application
Outline: as §2

[14] = test system: redroot pigweed (Amaranthus retroflexus, AMARE); test: Pre-emerge test, greenhouse herbicide activity screening; conditions: rating scale 0-100, 14 days after application
Outline: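 Plants grown in 10 cm pots of sandy loam mix received acetone-dissolved compounds through a moving flat-fan nozzle. Doses ranged from 15 to 1000 g ai/ha. Pre-emerge pots were seeded one day earlier, post-emerge pots 8–21 days earlier. Fourteen days on, each pot was graded 0–100 for damage.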

[15] = test system: green foxtail (Setaria viridis, SETVI); test: Post-emerge test, greenhouse herbicide activity screening; conditions: rating scale 0-100 (0 no damage, 100 complete death), 14 days after application
Outline: as §1

[16] = test system: redroot pigweed (Amaranthus retroflexus, AMARE); test: as above; conditions: rating scale 0-100 (0 no damage, 100 complete death), 14 days after application
Outline: as §1

[17] = test system: sicklepod (Cassia obtusifolia, CASOB); test: as above; conditions: rating scale 0-100 (0 no damage, 100 complete death), 14 days after application
Outline: as §1

[18] = test system: velvetleaf (Abutilon theophrasti, ABUTH); test: as above; conditions: rating scale 0-100 (0 no damage, 100 complete death), 14 days after application
Outline: as §1

[19] = test system: lambsquarters (Chenopodium album, CHEAL); test: as above; conditions: rating scale 0-100 (0 no damage, 100 complete death), 14 days after application
Outline: as §1

[20] = test system: johnsongrass (Sorghum halepense, SORHA); test: as above; conditions: rating scale 0-100 (0 no damage, 100 complete death), 14 days after application
Outline: as §1

[21] = test system: ivyleaf morningglory (Ipomoea hederacea, IPOHE); test: as above; conditions: rating scale 0-100 (0 no damage, 100 complete death), 14 days after application
Outline: as §1

[22] = test system: large crabgrass (Digitaria sanguinalis, DIGSA); test: as above; conditions: rating scale 0-100 (0 no damage, 100 complete death), 14 days after application
Outline: as §1

[23] = test system: barnyardgrass (Echinochloa crus-galli, ECHCG); test: as above; conditions: rating scale 0-100 (0 no damage, 100 complete death), 14 days after application
Outline: as §1

CCCCCOC(=O)C(Cl)Cc1c(OC)c(Cl)cc(F)c1-n1c(=O)cc(C(F)(F)F)n(C)c1=O (single isomer, unassigned) [14-11]
Post-emerge phytotoxicity rating RICE (crop damage) ([1]; Rate 63 g ai/ha): 10 | Post-emerge phytotoxicity rating RICE (crop damage) ([1]; Rate 250 g ai/ha): 20 | Post-emerge phytotoxicity rating CORN (crop damage) ([2]; Rate 63 g ai/ha): 100 | Post-emerge phytotoxicity rating CORN (crop damage) ([2]; Rate 250 g ai/ha): 100 | Pre-emerge herbicidal activity, phytotoxicity rating SETVI ([3]; 63 g ai/ha): 0 | Pre-emerge herbicidal activity, phytotoxicity rating SETVI ([3]; 250 g ai/ha): 50 | Pre-emerge herbicidal activity, phytotoxicity rating CASOB ([4]; 63 g ai/ha): 0 | Pre-emerge herbicidal activity, phytotoxicity rating CASOB ([4]; 250 g ai/ha): 0 | Pre-emerge herbicidal activity, phytotoxicity rating ABUTH ([5]; 63 g ai/ha): 50 | Pre-emerge herbicidal activity, phytotoxicity rating ABUTH ([5]; 250 g ai/ha): 100 | Pre-emerge herbicidal activity, phytotoxicity rating CHEAL ([6]; 63 g ai/ha): 70 | Pre-emerge herbicidal activity, phytotoxicity rating CHEAL ([6]; 250 g ai/ha): 100 | Pre-emerge herbicidal activity, phytotoxicity rating SORHA ([7]; 63 g ai/ha): 0 | Pre-emerge herbicidal activity, phytotoxicity rating SORHA ([7]; 250 g ai/ha): 0 | Pre-emerge herbicidal activity, phytotoxicity rating IPOHE ([8]; 63 g ai/ha): 30 | Pre-emerge herbicidal activity, phytotoxicity rating IPOHE ([8]; 250 g ai/ha): 50 | Pre-emerge herbicidal activity, phytotoxicity rating AMBEL ([9]; 63 g ai/ha): 0 | Pre-emerge herbicidal activity, phytotoxicity rating AMBEL ([9]; 250 g ai/ha): 100 | Pre-emerge herbicidal activity, phytotoxicity rating DIGSA ([10]; 63 g ai/ha): 50 | Pre-emerge herbicidal activity, phytotoxicity rating DIGSA ([10]; 250 g ai/ha): 100 | Pre-emerge herbicidal activity, phytotoxicity rating ECHCG ([11]; 63 g ai/ha): 0 | Pre-emerge herbicidal activity, phytotoxicity rating ECHCG ([11]; 250 g ai/ha): 0 | Pre-emerge phytotoxicity rating, crop damage RICE ([12]; 63 g ai/ha): 0 | Pre-emerge phytotoxicity rating, crop damage RICE ([12]; 250 g ai/ha): 0 | Pre-emerge phytotoxicity rating, crop damage CORN ([13]; 63 g ai/ha): 0 | Pre-emerge phytotoxicity rating, crop damage CORN ([13]; 250 g ai/ha): 0 | Pre-emerge herbicidal activity, phytotoxicity rating AMARE ([14]; 63 g ai/ha): 100 | Pre-emerge herbicidal activity, phytotoxicity rating AMARE ([14]; 250 g ai/ha): 100 | Post-emerge Herbicidal Activity, phytotoxicity rating SETVI ([15]; Rate 63 g ai/ha): 80 | Post-emerge Herbicidal Activity, phytotoxicity rating SETVI ([15]; Rate 250 g ai/ha): 100 | Post-emerge Herbicidal Activity, phytotoxicity rating AMARE ([16]; Rate 63 g ai/ha): 95 | Post-emerge Herbicidal Activity, phytotoxicity rating AMARE ([16]; Rate 250 g ai/ha): 100 | Post-emerge Herbicidal Activity, phytotoxicity rating CASOB ([17]; Rate 63 g ai/ha): 50 | Post-emerge Herbicidal Activity, phytotoxicity rating CASOB ([17]; Rate 250 g ai/ha): 70 | Post-emerge Herbicidal Activity, phytotoxicity rating ABUTH ([18]; Rate 63 g ai/ha): 80 | Post-emerge Herbicidal Activity, phytotoxicity rating ABUTH ([18]; Rate 250 g ai/ha): 100 | Post-emerge Herbicidal Activity, phytotoxicity rating CHEAL ([19]; Rate 63 g ai/ha): 50 | Post-emerge Herbicidal Activity, phytotoxicity rating CHEAL ([19]; Rate 250 g ai/ha): 100 | Post-emerge Herbicidal Activity, phytotoxicity rating SORHA ([20]; Rate 63 g ai/ha): 50 | Post-emerge Herbicidal Activity, phytotoxicity rating SORHA ([20]; Rate 250 g ai/ha): 99 | Post-emerge Herbicidal Activity, phytotoxicity rating IPOHE ([21]; Rate 63 g ai/ha): 90 | Post-emerge Herbicidal Activity, phytotoxicity rating IPOHE ([21]; Rate 250 g ai/ha): 100 | Post-emerge Herbicidal Activity, phytotoxicity rating DIGSA ([22]; Rate 63 g ai/ha): 99 | Post-emerge Herbicidal Activity, phytotoxicity rating DIGSA ([22]; Rate 250 g ai/ha): 100 | Post-emerge Herbicidal Activity, phytotoxicity rating ECHCG ([23]; Rate 63 g ai/ha): 100 | Post-emerge Herbicidal Activity, phytotoxicity rating ECHCG ([23]; Rate 250 g ai/ha): 100
